# Values quoted from earlier work as cited in patent publication US20240216476A1, “COMBINATION OF BITTER RECEPTOR AGONIST AND GUT-SIGNALING COMPOUND” (AARDVARK THERAPEUTICS, INC., priority 2021, published 2024).
# Where two headings read alike, the source gives them in different places. Marks after values point to notes of the source that are not given here.
# Experiments:
# [1] = cited from earlier work
# NASH in vivo models = conditions: cited from earlier work
# [2] = cited from earlier work; for Effect on Body Weight (placebo-adjusted change from baseline) / Effect on HbA1c (placebo-adjusted change from baseline): QD 24-26 weeks
# ob/ob mice = conditions: alogliptin 42.2 mg/kg/day 28 days, cited from earlier work
# [3] = test system: C57Bl/6J mice fed with high-fat diet; conditions: alogliptin 0.03% (wt/wt) in diet for life span, cited from earlier work
# [4] = C57BL/6 male mice fed MCD diet for 4 weeks, 5 mg/kg/day PO for the last 2 weeks
# [5] = semaglutide 3 mg, sitagliptin 100 mg, saxagliptin 2.5 mg, vildagliptin 50 mg, alogliptin 12.5 mg, linagliptin 5 mg
# [6] = semaglutide 7 mg, sitagliptin 200 mg, saxagliptin 5 mg, vildagliptin 100 mg, alogliptin 25 mg
# [7] = sitagliptin 0.0018% in diet 12 weeks
# [8] = sitagliptin 0.004% in diet 12 weeks, vildagliptin 30 mg/kg/day 7 weeks
# [9] = vildagliptin 30 mg/kg/day 7 weeks
# [10] = Male C57BL/6 mice fed CDAHFD diet for 20 weeks, 3 mg/kg PO for 12 weeks
# [11] = Male C57BL/6J mice fed AMLN diet for 50 weeks, 30 mg/kg, PO, QD for 8 weeks
# [12] = Male C57BL/6 mice fed fast food diet for 330 days, treatment started after 240 days, dose unknown
# [13] = C57BL/6 mice on 60% high fat diet for 36 weeks, 0.3-3 mg/kg/day PO for 24 days
# [14] = C57Bl6/J mice fed MCD diet for 3 weeks, 10 or 30 mg/kg, PO, QD for 3 weeks
# [15] = Male C57BL/6J mice fed high fat diet for 20 weeks, 0.3 mg/kg/day PO for 20 weeks
# [16] = Male DIAMOND mice fed WDSW for 24 weeks, 30 mg/kg/day PO QD for the last 8 weeks
# [17] = mouse model of diet-induced NASH, 10 mg/kg/day PO for eight weeks
# [18] = mouse model of diet-induced NASH, 10 mg/kg/day PO for eight weeks, significantly
compound,measurement,setting,value
Lixisenatide,Incidence of Hypoglycemic Episodes for Combination with Insulin (vs. Placebo),[1]; in vivo,28%*
same,Incidence of Hypoglycemic Episodes for Combination with Metformin (vs. Placebo),[1]; in vivo,3%
same,Incidence of Hypoglycemic Episodes for Combination with a Sulfonylurea (vs. Placebo),[1]; in vivo,15%**
same,Incidence of Hypoglycemic Episodes for Monotherapy at the Highest Dose (vs. Placebo),[1]; in vivo,2%
CCCCCCCCCCCCCCCCCCCC(=O)N[C@H]1CC[C@@]2(C)[C@@H](C1)C[C@@H](O)[C@@H]1[C@@H]2C[C@H](O)[C@]2(C)[C@@H]([C@H](C)CCC(=O)O)CC[C@@H]12.CNC[C@H](O)[C@@H](O)[C@H](O)[C@H](O)CO [Aramchol],"ALT, AST, or TG",NASH in vivo models; [4],"No effects on ALT,"
same,features of steatohepatitis and fibrosis,NASH in vivo models; [4],Reduced features of
same,protein expression of COL1A1 in the liver,NASH in vivo models; [4],decreased protein
Cn1c(=O)cc(N2CCC[C@@H](N)C2)n(Cc2ccccc2C#N)c1=O [Alogliptin],HDL (mg/dL),"[2]; alogliptin 12.5 mg QD 26 weeks, placebo +1.3",HDL (mg/dL): +0.9
same,LDL (mg/dL),"[2]; alogliptin 12.5 mg QD 26 weeks, placebo +4.6",LDL (mg/dL): −0.5
same,TC (mg/dL),"[2]; alogliptin 12.5 mg QD 26 weeks, placebo +10.1",TC (mg/dL): −1.2
same,TG (mg/dL),"[2]; alogliptin 12.5 mg QD 26 weeks, placebo +26.5",TG (mg/dL): −5.8
same,Effect on Body Weight (placebo-adjusted change from baseline),[2]; [5],12.5 mg: −0.27 kg
same,Effect on HbA1c (placebo-adjusted change from baseline),[2]; [5],12.5 mg: −0.54%
same,Effect on Body Weight (placebo-adjusted change from baseline),[2]; [6],25 mg: −0.4 kg
same,Effect on HbA1c (placebo-adjusted change from baseline),[2]; [6],25 mg: −0.57%
same,Control-adjusted Percent Change in HbA1c Level,ob/ob mice,−13%**
same,Control-adjusted Percent Change in Fasting Blood Glucose,ob/ob mice; [7],−15.6%
same,Control-adjusted Percent Change in Insulin Level,ob/ob mice; [7],+105%* *
same,Control-adjusted Percent Change in TG Level,ob/ob mice; [7],−24.5%
same,Control-adjusted Percent Change in HbA1c Level,[3],−8.8%
same,Control-adjusted Percent Change in Lipid Levels: LDL,[3],−16.4% in LDL
same,Control-adjusted Percent Change in Body Weight Gain,[3]; [8],−32.6%*
same,Control-adjusted Percent Change in Fasting Blood Glucose,[3]; [8],−10.1%
same,Control-adjusted Percent Change in Insulin Level,[3]; [8],-47.9%*
same,Control-adjusted Percent Change in Lipid Levels: TC,[3]; [9],−1.1% in TC
same,Control-adjusted Percent Change in Lipid Levels: TG,[3]; [9],−19.2% in TG*
CCO[C@@H](Cc1ccc(OCCn2c(C)ccc2-c2ccc(SC)cc2)cc1)C(=O)O [Saroglitazar],hepatic steatosis,NASH in vivo models; [10],induced reversal of
same,liver TNFα levels and hepatic fibrogenic and inflammatory gene expression,NASH in vivo models; [10],reduced liver TNFα
same,reduction of serum ALT,NASH in vivo models; [10],"including ALT (60%),"
same,reduction of serum AST,NASH in vivo models; [10],"AST (43%), and MCP1"
same,reduction of serum MCP1,NASH in vivo models; [10],(45%). Liver lipid (TG)
same,vacuolation and ballooning,NASH in vivo models; [10],reduced or no
CC[C@H]1[C@@H](O)[C@@H]2[C@H](CC[C@]3(C)[C@@H]([C@H](C)CCNC(=O)NS(=O)(=O)c4ccc(C(C)(C)C)cc4)CC[C@@H]23)[C@@]2(C)CC[C@@H](O)C[C@@H]12 [EDP-305],fibrogenic gene expression,"NASH in vivo models; Male C57BL/6 mice fed CDAHFD diet for 12 weeks, high dose (30 mg/kg daily PO) from week 6, significant",decreased fibrogenic
same,fibrosis progression on histopathology,"NASH in vivo models; Male C57BL/6 mice fed CDAHFD diet for 12 weeks, high-dose 30 mg/kg daily PO from beginning of week 6",halted fibrosis
CSc1ccc(C(=O)/C=C/c2cc(C)c(OC(C)(C)C(=O)O)c(C)c2)cc1 [Elafibranor (GFT505)],"histopathological scores of hepatic steatosis and inflammation, as well as fibrosis severity",NASH in vivo models; [11],Significantly reduced
same,"liver TG, total cholesterol contents, or plasma levels of ALT, AST, TG or total cholesterol",NASH in vivo models; [11],"No effects on liver TG,"
CC[C@H]1[C@@H](O)[C@@H]2[C@H](CC[C@]3(C)[C@@H]([C@H](C)CCC(=O)O)CC[C@@H]23)[C@@]2(C)CC[C@@H](O)C[C@@H]12 [Obeticholic acid (INT-747)],histopathological scores of hepatic steatosis and inflammation,NASH in vivo models; [11],Significantly reduced
same,liver weight,NASH in vivo models; [11],Significantly reduced
same,"total liver TG and total cholesterol, collagen 1a1, and galectin-3 content",NASH in vivo models; [11],Significantly reduced
same,plasma total cholesterol,"NASH in vivo models; Male C57BL/6J mice fed AMLN diet for 50 weeks, 30 mg/kg, PO, QD for 8 weeks, significant",reduced plasma total
Cc1cc(F)c(C(=O)Nc2cccc(-c3nncn3C(C)C)n2)cc1-n1cnc(C2CC2)c1 [Selonsertib (GS-4997)],"liver steatosis, fibrosis, and insulin resistance",NASH in vivo models; [12],Significantly reduced
same,reduction of liver cholesterol,NASH in vivo models; [12],45%
same,reduction of serum bile acid cholate,NASH in vivo models; [12],cholate (91% reduction)
same,reduction of serum cholesterol,NASH in vivo models; [12],14%
CC(C)c1cc(Oc2c(Cl)cc(-n3nc(C#N)c(=O)[nH]c3=O)cc2Cl)n[nH]c1=O [Resmetirom (MGL-3196)],insulin sensitivity,NASH in vivo models; [13],Improved insulin
same,reduction of serum ALT,NASH in vivo models; [13],"(46%), free fatty acids"
same,reduction of serum cholesterol,NASH in vivo models; [13],(67%).
same,reduction of serum free fatty acids,NASH in vivo models; [13],"(30%), and cholesterol"
same,"steatosis, fibrosis or inflammation in treated livers",NASH in vivo models; [13],No detectable
O=C(O)CCCc1cc2cc(Cl)ccc2n1S(=O)(=O)c1ccc2ncsc2c1 [Lanifibranor (IVA337)],induction of profibrotic and fibrotic genes,NASH in vivo models; [14],inhibited the induction
same,plasma alanine aminotransferase levels,NASH in vivo models; [14],significantly reduced
same,steatosis and inflammation on histopathology,NASH in vivo models; [14],IVA337 prevented
C[C@H](NC(=O)C(=O)Nc1ccccc1C(C)(C)C)C(=O)N[C@@H](CC(=O)O)C(=O)COc1c(F)c(F)cc(F)c1F [Emricasan],"inflammation, ballooning, and fibrosis on histopathology",NASH in vivo models; [15],Improved
same,"serum levels of glucose, HOMA-IR, cholesterol, ALT, and AST",NASH in vivo models; [15],Decreased serum levels
COc1cccc(C(=O)COc2ccc(CC3SC(=O)[N-]C3=O)cc2)c1.[K+] (stereo not drawn) [Azemiglitazone (MSDC 0602K)],NASH CRN fibrosis score,NASH in vivo models; [16],treated group was 0.
same,ballooning,NASH in vivo models; [16],significantly decreased
same,mice progressed from simple steatosis to NASH compared to the control group,NASH in vivo models; [16],Significantly fewer
same,"serum levels of fasting insulin, and AST and ALT",NASH in vivo models; [16],dramatically reduced
same,steatosis-activity-fibrosis (SAF) score,"NASH in vivo models; Male DIAMOND mice fed WDSW for 24 weeks, 30 mg/kg/day PO QD for the last 8 weeks, significantly, reduced to the level of baseline controls",lower in the MSDC-
CCCCOCCOc1ccc(-c2ccc3c(c2)/C=C(/C(=O)Nc2ccc([S@@+]([O-])Cc4cncn4CCC)cc2)CCCN3CC(C)C)cc1 [Cenicriviroc],intrahepatic accumulation of inflammatory macrophages,"NASH in vivo models; Male C57BL/6N mice fed CDAHFD, IP, 30 mg/kg/day for 4 or 14 weeks",Inhibited intrahepatic
same,frequency of intrahepatic anti-inflammatory macrophages,"NASH in vivo models; Male C57BL/6N mice fed CDAHFD, IP, 30 mg/kg/day for 14 weeks","weeks, and increased"
same,fibrosis on histopathology,"NASH in vivo models; Male C57BL/6N mice fed CDAHFD, IP, only with 30 mg/kg/day for 14 weeks",Significantly improved
Cc1cc(OCP2(=O)OCC[C@@H](c3cccc(Cl)c3)O2)cc(C)c1Cc1ccc(O)c(C(C)C)c1 (stereo partly drawn) [VK2809],"NAS score, mean improvement",NASH in vivo models; [17],(a 40% mean
same,"all subcomponents of NAS (inflammation, ballooning, and steatosis)",NASH in vivo models; [17],Improvements in all
same,"liver contents of triglyceride, cholesterol, collagen, and hydroxyproline",NASH in vivo models; [18],improved liver contents
same,liver fibrosis on histopathology,NASH in vivo models; [18],improved NAS score
same,plasma triglycerides and cholesterol,NASH in vivo models; [18],reduced plasma
CCCCCCCCCCCCCCCC(=O)N[C@@H](CCC(=O)NCCCC[C@H](NC(=O)[C@H](C)NC(=O)[C@H](C)NC(=O)[C@H](CCC(N)=O)NC(=O)CNC(=O)[C@H](CCC(=O)O)NC(=O)[C@H](CC(C)C)NC(=O)[C@H](Cc1ccc(O)cc1)NC(=O)[C@H](CO)NC(=O)[C@H](CO)NC(=O)[C@@H](NC(=O)[C@H](CC(=O)O)NC(=O)[C@H](CO)NC(=O)[C@@H](NC(=O)[C@H](Cc1ccccc1)NC(=O)[C@@H](NC(=O)CNC(=O)[C@H](CCC(=O)O)NC(=O)[C@H](C)NC(=O)[C@@H](N)Cc1cnc[nH]1)[C@@H](C)O)[C@@H](C)O)C(C)C)C(=O)N[C@@H](CCC(=O)O)C(=O)N[C@@H](Cc1ccccc1)C(=O)N[C@H](C(=O)N[C@@H](C)C(=O)N[C@@H](Cc1c[nH]c2ccccc12)C(=O)N[C@@H](CC(C)C)C(=O)N[C@H](C(=O)N[C@@H](CCCNC(=N)N)C(=O)NCC(=O)N[C@@H](CCCNC(=N)N)C(=O)NCC(=O)O)C(C)C)[C@@H](C)CC)C(=O)O [Liraglutide],Incidence of Hypoglycemic Episodes for Combination with Metformin (vs. Placebo),[1]; prescribing information,3.6%
same,Incidence of Hypoglycemic Episodes for Combination with a Sulfonylurea (vs. Placebo),"[1]; prescribing information, lixisenatide: add-on to a sulfonylurea with or without metformin",7.5%
O=C(O)c1cc(F)c2nc(N3[C@@H]4CC[C@H]3C[C@@H](OCc3c(-c5ccccc5OC(F)(F)F)noc3C3CC3)C4)sc2c1 [Tropifexor],"inflammation, steatosis, and fibrosis","NASH in vivo models; AMLN model (C57BL/6J mice on AMLN diet for 30 weeks), 0.03-0.9 mg/kg for the last 4 weeks",tropifexor reduced
same,mRNA levels of fibrogenic markers and hepatic inflammation cell populations,"NASH in vivo models; AMLN model (C57BL/6J mice), 0.03-0.9 mg/kg for the last 4 weeks",dramatically reduced
same,ALT/AST levels relative to controls,"NASH in vivo models; AMLN model (C57BL/6J mice), 0.03-0.9 mg/kg for the last 4 weeks, dose-dependent",reduction in ALT/AST
